# Data: patent US6962907B2, “Neurologically-active compounds” (The University of Sydney, priority 2001, dated 2005)
# “Also recorded” adds a separate entry of the source.
# Legend:
# GABAC receptors = details: Woodward et al, 1993; read-out: KB as antagonist at GABAC receptors; cited from earlier work
# GABAA receptors = experiment: Activity of ACPMPA isomers at GABAA receptors (subtype not stated), as for ACPBPA; format: cell-based; details: for reduction of the current produced by GABA (10 μM): 300 μM compound
# GABAC receptor = GABAC receptor (Homo sapiens, UniProt P24046); experiment: Activity of ACPMPA isomers as GABAC receptor antagonists (subtype not stated), as for ACPBPA; format: cell-based; parameters: expressed in transfected cells; details: for Kb: read-out: KB as GABAC receptor antagonist
# GABAC receptor, sequence (P24046 22-479): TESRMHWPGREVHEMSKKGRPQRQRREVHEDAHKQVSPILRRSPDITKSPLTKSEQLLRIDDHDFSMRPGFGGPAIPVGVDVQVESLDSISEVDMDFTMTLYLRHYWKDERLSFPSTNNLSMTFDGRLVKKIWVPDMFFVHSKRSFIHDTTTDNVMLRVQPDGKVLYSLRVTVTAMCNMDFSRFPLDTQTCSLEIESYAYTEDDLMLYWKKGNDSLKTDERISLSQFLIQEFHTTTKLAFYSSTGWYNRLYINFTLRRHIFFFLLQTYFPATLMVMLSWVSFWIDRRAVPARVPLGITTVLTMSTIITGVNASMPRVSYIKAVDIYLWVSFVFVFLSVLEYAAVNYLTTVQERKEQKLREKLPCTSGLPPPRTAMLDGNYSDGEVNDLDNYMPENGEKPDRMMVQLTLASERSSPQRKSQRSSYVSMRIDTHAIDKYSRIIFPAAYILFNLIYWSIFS
# GABAB receptor = GABAB receptor (Homo sapiens, UniProt Q9UBS5); experiment: Two-electrode voltage clamp at GABAB receptors (subtype not stated) expressed in Xenopus oocytes; details: for EC50: read-out: EC50 as GABAB receptor agonist; for effect as agonists or antagonists: 300 μM compound; for inhibition at 1000 µM: read-out: inhibition of 1 μM GABA (weak antagonist effect)
# GABAB (1a,2) receptor = biological target: T1, GABAB (1a,2) receptor (Homo sapiens, UniProt Q9UBS5); experiment: Two-electrode voltage clamp at GABAB (1a,2) receptors co-expressed with GIRK1 and GIRK4 in Xenopus oocytes; format: cell-based; details: for effect as agonist or antagonist: 300 μM compound; for current response to compound in the presence of GABA: 300 μM compound + 3 μM GABA; for current response to compound in the presence of GABA / response to compound alone: FIG. 10(b); for response to compound alone: 300 μM compound alone
# T1 construct: expressed in transfected cells; host or cells: Xenopus laevis oocytes injected with mRNA
# T1 sequence (Q9UBS5 15-961 limits assumed): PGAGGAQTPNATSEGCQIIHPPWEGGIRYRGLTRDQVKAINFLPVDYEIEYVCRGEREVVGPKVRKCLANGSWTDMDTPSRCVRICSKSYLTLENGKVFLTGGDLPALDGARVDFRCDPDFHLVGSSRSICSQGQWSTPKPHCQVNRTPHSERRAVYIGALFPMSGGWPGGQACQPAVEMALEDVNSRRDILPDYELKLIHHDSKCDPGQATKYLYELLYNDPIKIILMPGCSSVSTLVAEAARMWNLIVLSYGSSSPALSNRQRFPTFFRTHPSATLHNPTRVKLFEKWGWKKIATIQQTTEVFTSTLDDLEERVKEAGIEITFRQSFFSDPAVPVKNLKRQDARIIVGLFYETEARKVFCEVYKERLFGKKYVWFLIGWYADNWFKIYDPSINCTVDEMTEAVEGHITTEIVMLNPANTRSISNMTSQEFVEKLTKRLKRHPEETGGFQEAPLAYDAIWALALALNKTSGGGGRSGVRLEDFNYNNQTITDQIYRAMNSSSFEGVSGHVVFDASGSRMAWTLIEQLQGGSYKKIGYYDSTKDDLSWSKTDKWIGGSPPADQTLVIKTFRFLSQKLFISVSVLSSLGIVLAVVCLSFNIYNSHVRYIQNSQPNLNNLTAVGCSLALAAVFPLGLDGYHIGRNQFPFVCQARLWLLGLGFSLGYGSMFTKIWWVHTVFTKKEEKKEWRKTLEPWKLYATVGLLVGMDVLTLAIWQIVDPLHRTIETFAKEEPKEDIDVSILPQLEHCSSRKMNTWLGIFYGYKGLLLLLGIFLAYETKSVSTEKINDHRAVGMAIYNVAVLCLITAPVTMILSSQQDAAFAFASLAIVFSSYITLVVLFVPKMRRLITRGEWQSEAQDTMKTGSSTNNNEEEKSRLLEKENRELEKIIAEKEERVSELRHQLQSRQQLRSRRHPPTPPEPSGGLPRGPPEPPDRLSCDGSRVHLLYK
# T1 sequence (O75899 42-941 partner): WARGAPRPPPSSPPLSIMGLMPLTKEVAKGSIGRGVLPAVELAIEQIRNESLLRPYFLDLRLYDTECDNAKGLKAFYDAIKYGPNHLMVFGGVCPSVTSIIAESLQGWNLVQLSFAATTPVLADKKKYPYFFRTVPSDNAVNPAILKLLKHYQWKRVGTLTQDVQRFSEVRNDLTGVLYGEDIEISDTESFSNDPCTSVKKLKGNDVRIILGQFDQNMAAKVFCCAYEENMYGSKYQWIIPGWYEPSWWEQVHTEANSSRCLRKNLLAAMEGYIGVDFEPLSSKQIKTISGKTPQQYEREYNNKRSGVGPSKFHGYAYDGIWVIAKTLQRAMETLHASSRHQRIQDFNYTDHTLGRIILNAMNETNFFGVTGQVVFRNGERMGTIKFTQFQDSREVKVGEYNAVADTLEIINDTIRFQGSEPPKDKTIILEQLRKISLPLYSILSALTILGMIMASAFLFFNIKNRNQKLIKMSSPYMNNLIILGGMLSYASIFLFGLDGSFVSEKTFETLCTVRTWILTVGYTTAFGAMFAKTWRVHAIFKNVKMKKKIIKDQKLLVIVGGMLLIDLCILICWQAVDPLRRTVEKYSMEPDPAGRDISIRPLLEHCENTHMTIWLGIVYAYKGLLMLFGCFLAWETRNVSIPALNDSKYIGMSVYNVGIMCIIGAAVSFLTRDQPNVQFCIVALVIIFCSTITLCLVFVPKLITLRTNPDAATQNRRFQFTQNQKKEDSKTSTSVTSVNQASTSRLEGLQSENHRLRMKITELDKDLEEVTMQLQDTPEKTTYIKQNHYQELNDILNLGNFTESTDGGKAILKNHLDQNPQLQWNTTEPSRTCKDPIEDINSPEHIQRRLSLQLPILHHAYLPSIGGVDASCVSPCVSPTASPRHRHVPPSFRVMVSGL
# GABAC (ρ3) receptor = biological target: T2, GABAC (ρ3) receptor (Rattus norvegicus, UniProt P50573); experiment: Two-electrode voltage clamp at GABAC (ρ3) receptors expressed in Xenopus oocytes; details: for current response to compound in the presence of GABA: 100 μM compound + 10 μM GABA; for response to compound alone: 100 μM compound alone; for inhibition at 100 µM: read-out: inhibition of the GABA response
# T2 sequence (P50573 16-464): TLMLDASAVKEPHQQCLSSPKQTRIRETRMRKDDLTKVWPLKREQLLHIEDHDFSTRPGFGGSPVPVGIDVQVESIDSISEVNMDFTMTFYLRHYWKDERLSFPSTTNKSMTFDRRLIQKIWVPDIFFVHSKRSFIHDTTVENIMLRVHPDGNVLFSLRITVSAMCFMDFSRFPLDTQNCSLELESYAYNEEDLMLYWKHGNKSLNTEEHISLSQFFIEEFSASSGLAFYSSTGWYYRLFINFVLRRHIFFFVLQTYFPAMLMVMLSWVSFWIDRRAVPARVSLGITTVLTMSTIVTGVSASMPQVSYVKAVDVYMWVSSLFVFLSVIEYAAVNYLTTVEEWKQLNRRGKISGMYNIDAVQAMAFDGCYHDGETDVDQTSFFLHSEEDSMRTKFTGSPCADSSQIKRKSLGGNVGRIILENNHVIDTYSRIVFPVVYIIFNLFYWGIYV
# Protocol: (§1) For example, ρ1 GABAC receptor subunit subcloned in ρ1 cDNA 1.1 and is linearised using the restriction enzyme Xbal . Following this, the mRNA is then prepared from the linearised ρ1 subunit using T7 polymerase. This genetic material is then injected into the Xenopus laevis oocytes and incubated for 2 to 9 days, to allow for the process of translation to occur. After this process the Xenopus laevis oocytes show expression of the receptor and ion channel assembly on the cell surface.
# (§2) Female Xenopus laevis frogs were anaesthetised with tricaine (850 mg/500 mL) and a lobe of their ovaries surgically removed. […] Stage V-VI oocytes were collected and stored in Frog Ringer (ND96) wash solution (96 mM NaCI, 2 mM KCI, 1 mM MgCl2.6H20, 1.8 mM CaCl2.2H2O, 5 mM HEPES (hemi-Na salt), pH 7.5) supplemented with 2.5 mM sodium pyruvate, 0.5 mM theophylline, and 50 μg/mL gentamicin.
# (§3) Micropipettes were prepared by the microprocessor-controlled vertical pipette puller (World Precision Instruments) and bevelled to a tip diameter of 10-20 μm. The micropipettes were filled with mineral oil to ensure the mRNA solution would be drawn up into the micropipette under negative pressure. A Nanoject injector (World Precision Instruments) was used to deliver GABAA, GABAB or GABAC mRNA (50 nL) into the cytoplasm of the Xenopus oocytes. After injection with the appropriate mRNA, the oocytes were placed in a storage solution of ND96 wash solution supplemented with 2.5 mM sodium pyruvate, 0.5 mM theophylline and gentamicin (50 μg/mL) and stored on a slow speed rotator in an 18° C. controlled temperature incubator (Contherm, Petone, NZ). The storage solution was changed daily (or twice daily) and dead or unhealthy oocytes were removed to prolong the health of the remaining cells.
# (§4) Prior to recording, 100 mM stock solutions of (±)-cis- and (±)-trans-3-ACPBPA were prepared using autoclaved MilliQ water and stored at −20° C. […] At the time the experiments were to be recorded, the stock solutions were diluted with ND96 wash solution for testing on GABAA and GABAC receptors or 45 mM K^+ solution (45 mM NaCI, 45 mM KCI, 1 mM MgCl2.6H2O, 1.8 mM CaCl2.2H2O, 5 mM HEPES (hemi-Na salt), pH 7.5 at 25° C.) for testing on GABAB receptors.
# (§5) After 2 to 9 days of incubation, receptor activity using two-electrode voltage clamp recordings were acquired by means of a Geneclamp 500 amplifier (Axon Instruments Inc., Foster City, Calif., USA), a MacLab 2e recorder (AD Instruments, Sydney, Australia) and Chart™ v.3.6.3 for Macintosh (AD Instruments) to digitise the current and voltage signals.
# (§6) The recording microelectrodes were prepared from borosilicate glass capillaries (1.2 mm i.d.×0.94 mm o.d.; Clark Electromedical Instruments, Pangbourne, UK) using a micropipette puller (World Precision Instruments). The microelectrodes (tip resistances 0.5-1.5 MΩ) were filled with 3 M potassium chloride and a microscope was used to direct the insertion of these microelectrodes into the oocyte positioned in the cell bath. The membrane potential of the oocyte was then voltage-clamped at −60 mV.
# (§7) Oocytes with an adequate level of receptor expression (with maximal currents (I)≧50 nA) were used for subsequent recording. […] Oocytes were washed for 3-4 minutes between applications of drug doses to ensure for receptor recovery.
# GABAA (α2β2γ2s) receptor = GABAA (α2β2γ2s) receptor (Homo sapiens, UniProt P47869+P47870); experiment: Two-electrode voltage clamp at GABAA (α2β2γ2s) receptors expressed in Xenopus oocytes; details: for effect as agonist or antagonist: 1 mM compound; for current response to compound in the presence of GABA: 1 mM compound + 3 μM GABA; for current response to compound in the presence of GABA / response to compound alone / current response to GABA alone: FIG. 9; for response to compound alone: 1 mM compound alone; for current response to GABA alone: oocyte clamped at −60 mV
# GABAA (α2β2γ2s) receptor, sequence (P47869 29-451): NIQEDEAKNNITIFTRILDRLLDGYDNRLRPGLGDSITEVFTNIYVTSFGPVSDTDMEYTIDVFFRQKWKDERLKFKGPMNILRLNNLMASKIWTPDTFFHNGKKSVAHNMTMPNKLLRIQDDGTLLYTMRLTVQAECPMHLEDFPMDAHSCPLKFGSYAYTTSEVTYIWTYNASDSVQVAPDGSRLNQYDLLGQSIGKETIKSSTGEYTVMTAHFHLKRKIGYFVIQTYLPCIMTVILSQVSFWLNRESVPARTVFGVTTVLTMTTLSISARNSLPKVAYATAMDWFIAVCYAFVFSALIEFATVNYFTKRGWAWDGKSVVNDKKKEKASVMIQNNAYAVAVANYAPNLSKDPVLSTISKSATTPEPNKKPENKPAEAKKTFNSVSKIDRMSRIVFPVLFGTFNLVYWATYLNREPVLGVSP
# GABAA (α2β2γ2s) receptor, sequence (P47870 25-512 limits assumed): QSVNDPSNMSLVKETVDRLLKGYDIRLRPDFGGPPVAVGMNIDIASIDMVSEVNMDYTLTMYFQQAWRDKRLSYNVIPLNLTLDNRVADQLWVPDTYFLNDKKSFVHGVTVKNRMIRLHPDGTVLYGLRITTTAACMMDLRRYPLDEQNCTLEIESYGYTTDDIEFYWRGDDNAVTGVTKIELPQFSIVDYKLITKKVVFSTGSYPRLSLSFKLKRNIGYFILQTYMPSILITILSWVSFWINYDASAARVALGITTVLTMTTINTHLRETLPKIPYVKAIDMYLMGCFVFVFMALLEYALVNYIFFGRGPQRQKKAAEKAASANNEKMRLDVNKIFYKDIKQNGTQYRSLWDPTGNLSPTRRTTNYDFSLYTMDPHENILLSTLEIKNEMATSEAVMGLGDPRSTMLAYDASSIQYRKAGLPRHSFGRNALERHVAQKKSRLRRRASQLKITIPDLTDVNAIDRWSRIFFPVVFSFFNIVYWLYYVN
# GABAA (α2β2γ2s) receptor, sequence (P18507 40-467 isoform P18507-1 partner limits assumed): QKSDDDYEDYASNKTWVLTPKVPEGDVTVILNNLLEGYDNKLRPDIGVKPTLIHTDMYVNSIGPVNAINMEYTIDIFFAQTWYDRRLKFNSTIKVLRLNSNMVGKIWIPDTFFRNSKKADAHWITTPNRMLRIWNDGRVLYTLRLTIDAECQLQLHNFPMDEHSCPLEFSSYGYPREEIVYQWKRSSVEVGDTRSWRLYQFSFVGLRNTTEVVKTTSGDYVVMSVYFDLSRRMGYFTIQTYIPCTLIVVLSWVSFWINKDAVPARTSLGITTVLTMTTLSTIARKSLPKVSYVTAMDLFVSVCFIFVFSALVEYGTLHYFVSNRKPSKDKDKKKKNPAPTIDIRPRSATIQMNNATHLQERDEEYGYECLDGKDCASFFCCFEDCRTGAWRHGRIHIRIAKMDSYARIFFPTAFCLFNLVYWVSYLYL
# Protocol: as §1, §2, §3, §4, §5, §6, §7
# GABAB (1b,2) receptor = biological target: T3, GABAB (1b,2) receptor (Homo sapiens, UniProt Q9UBS5); experiment: Two-electrode voltage clamp at GABAB (1b,2) receptors co-expressed with GIRK1 and GIRK4 in Xenopus oocytes; format: cell-based; details: for effect as agonist or antagonist: 300 μM compound; for current response to compound in the presence of GABA: 300 μM compound + 1 μM GABA; for current response to compound in the presence of GABA / response to compound alone: FIG. 10(a); for response to compound alone: 300 μM compound alone
# T3 construct: expressed in transfected cells; host or cells: Xenopus laevis oocytes injected with mRNA
# T3 sequence (Q9UBS5 1-844 isoform Q9UBS5-2): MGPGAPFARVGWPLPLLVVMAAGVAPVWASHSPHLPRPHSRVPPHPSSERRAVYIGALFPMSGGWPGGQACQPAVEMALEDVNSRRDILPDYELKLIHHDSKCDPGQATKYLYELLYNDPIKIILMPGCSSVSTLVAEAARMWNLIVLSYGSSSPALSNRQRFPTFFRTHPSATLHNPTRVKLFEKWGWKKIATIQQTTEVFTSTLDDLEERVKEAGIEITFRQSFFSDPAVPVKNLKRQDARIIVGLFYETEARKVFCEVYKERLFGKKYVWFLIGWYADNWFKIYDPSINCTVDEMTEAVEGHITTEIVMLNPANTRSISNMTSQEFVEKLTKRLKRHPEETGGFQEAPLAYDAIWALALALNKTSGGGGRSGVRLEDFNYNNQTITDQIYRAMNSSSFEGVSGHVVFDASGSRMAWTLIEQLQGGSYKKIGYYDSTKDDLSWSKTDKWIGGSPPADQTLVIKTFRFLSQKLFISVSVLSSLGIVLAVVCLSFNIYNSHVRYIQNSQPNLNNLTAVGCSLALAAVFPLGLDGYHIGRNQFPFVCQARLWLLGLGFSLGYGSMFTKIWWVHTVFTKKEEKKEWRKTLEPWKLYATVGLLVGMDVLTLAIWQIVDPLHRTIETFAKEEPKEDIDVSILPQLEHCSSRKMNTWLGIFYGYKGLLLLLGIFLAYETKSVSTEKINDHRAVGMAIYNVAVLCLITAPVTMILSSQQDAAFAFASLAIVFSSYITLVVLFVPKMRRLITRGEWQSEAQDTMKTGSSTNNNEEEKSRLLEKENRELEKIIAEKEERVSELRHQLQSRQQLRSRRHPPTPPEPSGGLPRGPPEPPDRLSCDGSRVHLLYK
# T3 sequence (O75899 42-941 partner): as the sequence (O75899 42-941 partner) above
# GABAC (ρ1) receptor = GABAC (ρ1) receptor (Homo sapiens, UniProt P24046); experiment: Two-electrode voltage clamp at GABAC (ρ1) receptors expressed in Xenopus oocytes; details: for current response to compound in the presence of GABA: 100 μM compound + 1 μM GABA; for current response to compound in the presence of GABA / response to compound alone / current response to GABA alone: FIG. 11(a); for response to compound alone: 100 μM compound alone; for Hill coefficient (nH) for GABA in the presence of the antagonist / I/Imax, maximal GABA response maintained in the presence of the antagonist: (±)-cis 40 μM or (±)-trans 30 μM; for I/Imax, maximal GABA response maintained in the presence of the antagonist / type of antagonism: FIG. 12; for type of antagonism: parallel shift of the GABA dose-response curves; for inhibition at 100 µM: read-out: inhibition of the GABA response
# GABAC (ρ1) receptor, sequence (P24046 22-479): as the sequence (P24046 22-479) above
# Protocol: as §1, §2, §3, §4, §5, §6, §7
# GABAC (ρ2) receptor = GABAC (ρ2) receptor (Homo sapiens, UniProt P28476); experiment: Two-electrode voltage clamp at GABAC (ρ2) receptors expressed in Xenopus oocytes; details: for current response to compound in the presence of GABA: 100 μM compound + 1 μM GABA; for current response to compound in the presence of GABA / response to compound alone / current response to GABA alone: FIG. 11(b); for response to compound alone: 100 μM compound alone; for inhibition at 100 µM: read-out: inhibition of the GABA response
# GABAC (ρ2) receptor, sequence (P28476 21-465): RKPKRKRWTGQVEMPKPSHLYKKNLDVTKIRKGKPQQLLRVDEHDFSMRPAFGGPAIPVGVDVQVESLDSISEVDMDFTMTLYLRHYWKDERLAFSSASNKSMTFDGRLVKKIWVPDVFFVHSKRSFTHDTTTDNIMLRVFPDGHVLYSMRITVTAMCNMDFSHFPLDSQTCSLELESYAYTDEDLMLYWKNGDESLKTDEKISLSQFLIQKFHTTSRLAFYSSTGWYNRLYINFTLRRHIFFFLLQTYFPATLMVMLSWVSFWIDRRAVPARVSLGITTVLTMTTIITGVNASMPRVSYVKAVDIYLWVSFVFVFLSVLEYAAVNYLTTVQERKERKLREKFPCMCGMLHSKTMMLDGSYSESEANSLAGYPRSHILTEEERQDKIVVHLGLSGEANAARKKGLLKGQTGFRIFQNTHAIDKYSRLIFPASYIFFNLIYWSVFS
# Protocol: as §1, §2, §3, §4, §5, §6, §7
molecule,measurement,setting,value
"NCCCP(=O)(O)O [3-APA, 3-aminopropylphosphonic acid]",Kb,GABAC receptors,1.8 µM
(±)-cis-(3-Aminocyclopentanyl)methylphosphinic acid [(±)-cis-3-ACPMPA],GABAA antagonist activity in words,GABAA receptors,very weak activity as antagonists
same,reduction of the current produced by GABA (10 μM),GABAA receptors,8%
same,selectivity for GABAC than GABAA receptors,GABAC receptor,more than 100 times
same,selectivity for GABAC than GABAB receptors,GABAC receptor,50 times
same,times more potent than (±)-cis-3-ACPBPA at the GABAC receptors,GABAC receptor,12 times
same,times more potent than TPMPA,GABAC receptor,2 times
same,Kb,GABAC receptor,1 µM
same,GABAB agonist activity in words,GABAB receptor,moderately potent GABAB receptor agonists
same,EC50,GABAB receptor,50 µM
"CCCCP(=O)(O)[C@@H]1CC[C@@H](N)C1 (racemic) [(±)-trans-3-ACPBPA, (±)-trans-(3-aminocyclopentanyl)butylphosphinic acid]",Kb,"GABAB (1a,2) receptor",> 300 µM
same,effect as agonist or antagonist,"GABAB (1a,2) receptor",did not act as an agonist or antagonist; also recorded: no apparent effect as an agonist or antagonist; also recorded: no effect as agonists or antagonists; also recorded: No effect
same,current response to compound in the presence of GABA,"GABAB (1a,2) receptor",407 nA
same,response to compound alone,"GABAB (1a,2) receptor",no detectable response
same,antagonist activity in words,GABAC (ρ3) receptor,potent antagonists
same,current response to compound in the presence of GABA,GABAC (ρ3) receptor; FIG. 11(c),455 nA
same,response to compound alone,GABAC (ρ3) receptor; FIG. 11(c),no visible response
same,inhibition at 100 µM,GABAC (ρ3) receptor,45%
same,effect as agonist or antagonist,GABAA (α2β2γ2s) receptor,did not act as an agonist or antagonist; also recorded: no effect as an agonist or antagonist; also recorded: no effect as an agonist or an antagonist; also recorded: No effect
same,current response to compound in the presence of GABA,GABAA (α2β2γ2s) receptor,60 nA
same,response to compound alone,GABAA (α2β2γ2s) receptor,no detectable response
same,Kb,"GABAB (1b,2) receptor",> 300 µM
same,effect as agonist or antagonist,"GABAB (1b,2) receptor",did not act as an agonist or antagonist; also recorded: no apparent effect as an agonist or antagonist; also recorded: no effect as agonists or antagonists; also recorded: No effect
same,current response to compound in the presence of GABA,"GABAB (1b,2) receptor",15 nA
same,response to compound alone,"GABAB (1b,2) receptor",no detectable response
same,Kb,GABAC (ρ1) receptor,43.8 ± 5.1 µM
same,antagonist activity in words,GABAC (ρ1) receptor,potent antagonists
same,current response to compound in the presence of GABA,GABAC (ρ1) receptor,34 nA
same,response to compound alone,GABAC (ρ1) receptor,no detectable response
same,Hill coefficient (nH) for GABA in the presence of the antagonist,GABAC (ρ1) receptor,2.2±0.2
same,"I/Imax, maximal GABA response maintained in the presence of the antagonist",GABAC (ρ1) receptor,0.94±0.05
same,type of antagonism,GABAC (ρ1) receptor,competitive antagonists
same,inhibition at 100 µM,GABAC (ρ1) receptor,77%
same,Kb,GABAB receptor,> 1000 µM
same,effect as agonists or antagonists,GABAB receptor,no effect as agonists or antagonists
same,inhibition at 1000 µM,GABAB receptor,10%
same,antagonist activity in words,GABAC (ρ2) receptor,potent antagonists
same,current response to compound in the presence of GABA,GABAC (ρ2) receptor,17 nA
same,response to compound alone,GABAC (ρ2) receptor,no measurable response
same,inhibition at 100 µM,GABAC (ρ2) receptor,32%
(±)-trans-(3-Aminocyclopentanyl)methylphosphinic acid [(±)-trans-3-ACPMPA],GABAA antagonist activity in words,GABAA receptors,very weak activity as antagonists
same,reduction of the current produced by GABA (10 μM),GABAA receptors,11%
same,selectivity for GABAC than GABAA receptors,GABAC receptor,45 times
same,selectivity for GABAC than GABAB receptors,GABAC receptor,24 times
same,times less potent than TPMPA,GABAC receptor,3 times
same,Kb,GABAC receptor,6.6 µM
same,GABAB agonist activity in words,GABAB receptor,moderately potent GABAB receptor agonists
same,EC50,GABAB receptor,160 µM
"NCCCC(=O)O [GABA, γ-Aminobutyric acid, reference compound]",current response to GABA alone,"GABAC (ρ3) receptor; GABA 10 μM, FIG. 11(c)",880 nA
same,current response to GABA alone,GABAA (α2β2γ2s) receptor; GABA 3 μM,65 nA
same,current response to GABA alone,GABAA (α2β2γ2s) receptor; GABA 300 μM,1180 nA
same,current response to GABA alone,GABAC (ρ1) receptor; GABA 1 μM,105 nA
same,current response to GABA alone,GABAC (ρ1) receptor; GABA 10 μM,142 nA
same,Hill coefficient (nH) for GABA alone,GABAC (ρ1) receptor; GABA dose-response curve,1.9±0.3
same,current response to GABA alone,GABAC (ρ2) receptor; GABA 1 μM,23 nA
same,current response to GABA alone,GABAC (ρ2) receptor; GABA 100 μM,35 nA
"CCCCP(=O)(O)[C@H]1CC[C@@H](N)C1 (racemic) [(±)-cis-3-ACPBPA, (±)-cis-(3-aminocyclopentanyl)butylphosphinic acid]",Kb,"GABAB (1a,2) receptor",> 300 µM
same,effect as agonist or antagonist,"GABAB (1a,2) receptor",did not act as an agonist or antagonist; also recorded: no apparent effect as an agonist or antagonist; also recorded: no effect as agonists or antagonists; also recorded: No effect
same,current response to compound in the presence of GABA,"GABAB (1a,2) receptor",405 nA
same,response to compound alone,"GABAB (1a,2) receptor",no response was detected
same,antagonist activity in words,GABAC (ρ3) receptor,potent antagonists
same,current response to compound in the presence of GABA,GABAC (ρ3) receptor; FIG. 11(c),120 nA
same,response to compound alone,GABAC (ρ3) receptor; FIG. 11(c),no measurable response
same,inhibition at 100 µM,GABAC (ρ3) receptor,85%
same,effect as agonist or antagonist,GABAA (α2β2γ2s) receptor,did not act as an agonist or antagonist; also recorded: no effect as an agonist or antagonist; also recorded: no effect as an agonist or an antagonist; also recorded: No effect
same,current response to compound in the presence of GABA,GABAA (α2β2γ2s) receptor,65 nA
same,response to compound alone,GABAA (α2β2γ2s) receptor,no response was detected
same,Kb,"GABAB (1b,2) receptor",> 300 µM
same,effect as agonist or antagonist,"GABAB (1b,2) receptor",did not act as an agonist or antagonist; also recorded: no apparent effect as an agonist or antagonist; also recorded: no effect as agonists or antagonists; also recorded: No effect
same,current response to compound in the presence of GABA,"GABAB (1b,2) receptor",20 nA
same,response to compound alone,"GABAB (1b,2) receptor",no response was detected
same,Kb,GABAC (ρ1) receptor,12.5 ± 1.2 µM
same,antagonist activity in words,GABAC (ρ1) receptor,potent antagonists
same,current response to compound in the presence of GABA,GABAC (ρ1) receptor,2 nA
same,response to compound alone,GABAC (ρ1) receptor,no recordable response
same,Hill coefficient (nH) for GABA in the presence of the antagonist,GABAC (ρ1) receptor,2.3±0.2
same,"I/Imax, maximal GABA response maintained in the presence of the antagonist",GABAC (ρ1) receptor,0.91±0.02
same,type of antagonism,GABAC (ρ1) receptor,competitive antagonists
same,potency relative to (±)-trans-3-ACPBPA,GABAC (ρ1) receptor; ratio of estimated KB values,3.5 times
same,inhibition at 100 µM,GABAC (ρ1) receptor,~100%
same,Kb,GABAB receptor,> 1000 µM
same,effect as agonists or antagonists,GABAB receptor,no effect as agonists or antagonists
same,inhibition at 1000 µM,GABAB receptor,10%
same,antagonist activity in words,GABAC (ρ2) receptor,potent antagonists
same,current response to compound in the presence of GABA,GABAC (ρ2) receptor,4 nA
same,response to compound alone,GABAC (ρ2) receptor,no detectable response
same,inhibition at 100 µM,GABAC (ρ2) receptor,~100%
"NCCC[PH](=O)O [CGP27492, 3-aminopropylphosphinic acid]",Kb,GABAC receptors,0.8 µM
"CP(=O)(O)CCCN [CGP35024, (3-aminopropyl)methylphosphinc acid]",Kb,GABAC receptors,0.8 µM
